Read-outs that look alike come from different tables or passages of the source.
Tests used:
Format in all cases: cell-based
PfFNT wildtype = target: T1, PfFNT wildtype (Plasmodium falciparum, UniProt O77389); assay: Inhibition of radiolabelled L-lactate uptake in yeast expressing wild-type PfFNT
T1 construct: expressed in transfected cells; host or cells: Saccharomyces cerevisiae W303-1A jen1Δ ady2Δ, plasmid pDR196
Experimental: (§1) Plasmodium falciparum were kept in culture in 5% 0+ erythrocytes in RPMI 1640 medium containing 0,5% Albumax at 37 °C. […] Medium containing test compounds was exchanged every 24 h. In order to test for the propensity of parasites to develop resistance to a given substance, 3D7 parasites were grown in the presence of 3 x IC50 of a test for 30 days. Thereafter the drug was removed by exchanging the medium, and the day recorded when parasites resurfaced in the culture. As an alternative to Plasmodium falciparum, the FNT of the wild-type plasmodium (available under accession number PF3D7_0316600 in the data bank PlasmoDB) and the FNT (G107S mutant FNT) of the resistant plasmodia were expressed in the yeast Saccharomyces cerevisiae W303-1A jen1Δ ady2Δ from plasmid pDR196 (PMA promoter). In the yeast, the endogenous genes for the monocarboxylate transporter Jen1p (sequence accession No. CAA82062 NCBI) and Ady2p (sequence accession No. KZV12856) were deleted (obtained from M. Casal, Universidade do Minho, Portugal).
(§2) This yeast was grown in SD medium with addition of adenine, histidine, leucine, tryptophan and 2 % (wt/v) glucose at 30 °C up to an OD600 of 0.8 to 1.0, harvested by centrifugation and washed once with water and centrifuged down again, and suspended in 50 mM HEPES/TRIS (pH 6.8) and adjusted to an OD600 of 50± 10% and stored on ice. For contacting with one of the compounds a compound of one step of a dilution series in DMSO was provided in a reaction vessel and onto this 80 µL of the yeast suspension were pipetted. After an incubation on ice for 15 to 20 min 20 µL 5 mM Na-L-lactate plus 0.04 µCi radioactively labelled L-(1-^14C) lactate was added. The lactate concentration obtained was 1 mM. After an incubation of 30 s the uptake of lactate was stopped by a rapid dilution by means of adding of 1 ml ice cold water. From the yeast suspension diluted this way the yeast cells were brought onto a filter membrane by vacuum filtration, washed with 7 ml cold water and transferred with the filter membrane into 3 ml scintillation cocktail. After 24 h of incubation at 18 °C in the scintillation cocktail, in which the cells were lysed, the amount of radioactively labelled lactate was measured by means of a scintillation counter. The total amount of lactate which was taken up by the yeast was calculated from the measured amount of radioactively labelled lactate. As a positive control the yeast was treated equally in parallel testing with DMSO without one of the compounds and was regarded as 100% FNT activity, respectively 0% inhibition. In tests with the compound a lower amount of lactate taken up was found in comparison to the parallel positive control. As a negative control yeast was treated in parallel in which the endogenous genes for the monocarboxylate transporters Jen1p and Ady2p were deleted, but the FNT from plasmodium was not expressed. This negative control was regarded as 0% FNT activity, respectively 100% inhibition.

PfFNT G107S = target: T2, PfFNT G107S (Plasmodium falciparum, UniProt O77389, G107S); assay: Inhibition of radiolabelled L-lactate uptake in yeast expressing G107S mutant PfFNT
T2 construct: expressed in transfected cells; host or cells: Saccharomyces cerevisiae W303-1A jen1Δ ady2Δ, plasmid pDR196
T2 sequence (O77389 1-309 G107S): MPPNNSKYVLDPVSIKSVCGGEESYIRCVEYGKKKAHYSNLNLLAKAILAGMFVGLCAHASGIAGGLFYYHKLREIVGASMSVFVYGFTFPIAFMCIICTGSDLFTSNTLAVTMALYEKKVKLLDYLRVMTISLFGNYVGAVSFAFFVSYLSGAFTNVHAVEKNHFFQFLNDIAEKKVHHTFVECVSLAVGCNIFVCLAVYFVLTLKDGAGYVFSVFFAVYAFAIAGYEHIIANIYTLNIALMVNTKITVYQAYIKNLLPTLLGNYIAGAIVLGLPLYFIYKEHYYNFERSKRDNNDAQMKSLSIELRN
Experimental: as §1, §2

FNT of P. vivax (PvFNT) = FNT of P. vivax (PvFNT) (Plasmodium vivax, UniProt A0A1G4GWI6); assay: Inhibition of the FNT of P. vivax
FNT of P. vivax (PvFNT), sequence (A0A1G4GWI6 whole entry): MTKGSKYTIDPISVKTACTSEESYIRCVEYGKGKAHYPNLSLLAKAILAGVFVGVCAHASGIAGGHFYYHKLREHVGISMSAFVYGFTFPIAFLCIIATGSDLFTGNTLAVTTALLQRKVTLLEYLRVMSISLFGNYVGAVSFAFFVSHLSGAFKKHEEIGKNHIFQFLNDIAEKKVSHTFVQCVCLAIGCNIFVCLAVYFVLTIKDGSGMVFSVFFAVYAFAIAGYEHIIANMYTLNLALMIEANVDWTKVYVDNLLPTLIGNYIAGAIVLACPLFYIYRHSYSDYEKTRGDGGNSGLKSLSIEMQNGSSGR

[1] = target: FNT of P. knowlesi (PkFNT) (Plasmodium knowlesi, UniProt A0A679KXN5); assay: Inhibition of the FNT of P. knowlesi
FNT of P. knowlesi (PkFNT), sequence (A0A679KXN5 whole entry): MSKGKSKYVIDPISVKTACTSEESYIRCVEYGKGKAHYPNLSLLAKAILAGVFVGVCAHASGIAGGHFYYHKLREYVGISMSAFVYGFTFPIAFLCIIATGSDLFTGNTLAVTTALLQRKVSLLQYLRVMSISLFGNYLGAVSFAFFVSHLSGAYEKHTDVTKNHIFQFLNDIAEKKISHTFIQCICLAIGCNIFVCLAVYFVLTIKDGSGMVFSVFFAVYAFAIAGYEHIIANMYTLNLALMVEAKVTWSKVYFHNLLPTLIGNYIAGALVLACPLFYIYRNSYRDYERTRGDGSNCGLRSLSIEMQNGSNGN

FNT of P. ovale (PoFNT) = FNT of P. ovale (PoFNT) (Plasmodium ovale, UniProt A0A1D3TGZ2); assay: Inhibition of the FNT of P. ovale
FNT of P. ovale (PoFNT), sequence (A0A1D3TGZ2 whole entry): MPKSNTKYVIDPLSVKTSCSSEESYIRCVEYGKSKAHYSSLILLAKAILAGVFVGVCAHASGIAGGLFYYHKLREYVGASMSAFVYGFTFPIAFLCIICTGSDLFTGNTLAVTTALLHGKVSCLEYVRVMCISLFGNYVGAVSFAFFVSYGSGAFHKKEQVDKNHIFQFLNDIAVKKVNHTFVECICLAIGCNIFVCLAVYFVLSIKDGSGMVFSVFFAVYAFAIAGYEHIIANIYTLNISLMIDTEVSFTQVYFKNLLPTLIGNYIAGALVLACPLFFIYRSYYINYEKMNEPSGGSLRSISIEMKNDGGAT

[2] = target: FNT of P. malariae (PmFNT) (Plasmodium malariae, UniProt A0A1C3KYI2); assay: Inhibition of the FNT of P. malariae
FNT of P. malariae (PmFNT), sequence (A0A1C3KYI2 whole entry): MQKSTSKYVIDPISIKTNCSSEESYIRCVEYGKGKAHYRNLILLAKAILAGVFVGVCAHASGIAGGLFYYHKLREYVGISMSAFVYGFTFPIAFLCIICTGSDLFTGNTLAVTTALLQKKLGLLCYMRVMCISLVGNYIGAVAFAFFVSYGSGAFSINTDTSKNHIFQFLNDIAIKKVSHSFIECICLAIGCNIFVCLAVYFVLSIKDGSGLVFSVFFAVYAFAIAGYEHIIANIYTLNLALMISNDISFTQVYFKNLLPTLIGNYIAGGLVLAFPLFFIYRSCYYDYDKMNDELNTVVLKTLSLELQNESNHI

[3] = G107S mutant FNT, 1 mM lactate, pH 6.8, 30 s uptake, read-out: PfFNT G107S IC50
[4] = read-out: IC50 for the FNT of P. vivax (PvFNT)

T1 sequence (O77389 whole entry): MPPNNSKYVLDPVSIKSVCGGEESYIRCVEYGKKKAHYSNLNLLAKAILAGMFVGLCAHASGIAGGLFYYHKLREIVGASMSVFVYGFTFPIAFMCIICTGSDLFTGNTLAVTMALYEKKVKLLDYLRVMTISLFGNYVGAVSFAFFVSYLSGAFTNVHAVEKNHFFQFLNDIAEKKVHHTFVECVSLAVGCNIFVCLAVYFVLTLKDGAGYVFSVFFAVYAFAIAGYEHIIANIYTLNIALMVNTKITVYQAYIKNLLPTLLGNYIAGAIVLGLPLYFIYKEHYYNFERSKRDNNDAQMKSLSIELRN

SMILES	IC50 (PfFNT wildtype)	IC50 (PfFNT G107S; [3])	IC50 (PfFNT G107S)	also measured
COc1ccc(C(=O)C=C(O)C(F)(F)C(F)(F)F)c(O)c1 [compound [1], reference compound]	170 ± 10 nM	21000 ± 1000 nM	–	IC50 (FNT of P. vivax (PvFNT); [4]): 69 ± 3 nM; IC50 [1]: 212 ± 70 nM
COc1ccc(C(=O)C=C(O)C(F)(F)C(F)(F)F)cc1 [compound [2], reference compound]	140 ± 10 nM	2700 ± 200 nM	–	IC50 (FNT of P. vivax (PvFNT); [4]): 249 ± 80 nM; IC50 [1]: 985 ± 80 nM; IC50 (FNT of P. ovale (PoFNT)): ~900 nM; IC50 [2]: 391 ± 50 nM
CC(C)(O)CC(=O)C=C(O)C(F)(F)C(F)(F)F [compound [3], reference compound]	1100 ± 100 nM	490000 ± 20000 nM	–	–
O=C(C=C(O)C(F)(F)C(F)(F)F)c1ccc[nH]1 [compound [4], reference compound]	160 ± 10 nM	12000 ± 1000 nM	–	–
O=C(C=C(O)C(F)(F)C(F)(F)F)c1cc[nH]c1 [compound [5], reference compound]	200 ± 10 nM	13000 ± 1000 nM	–	–
Cn1ccc(C(=O)C=C(O)C(F)(F)C(F)(F)F)c1 [compound [6], reference compound]	130 ± 10 nM	14000 ± 1000 nM	–	–
O=C(C=C(O)C(F)(F)C(F)(F)F)c1cc2ccccc2o1 [compound [7], reference compound]	190 ± 10 nM	17000 ± 2000 nM	–	–
O=C(C=C(O)C(F)(F)C(F)(F)F)c1cccnn1 [compound [12], 4,4,5,5,5-pentafluoro-3-hydroxy-1-pyridazin-3-yl-pent-2-en-1-one]	860 ± 30 nM	–	3800 ± 800 nM	–
O=C(C=C(O)C(F)(F)C(F)(F)F)c1cnccn1 [compound [13], 4,4,5,5,5-pentafluoro-3-hydroxy-1-pyrazin-2-yl-pent-2-en-1-one]	460 ± 30 nM	–	1200 ± 300 nM	–
O=C(C=C(O)C(F)(F)C(F)(F)F)c1ccncc1 [compound [14], 4,4,5,5,5-pentafluoro-3-hydroxy-1-(4-pyridyl)pent-2-en-1-one]	150 ± 30 nM	–	22000 ± 7000 nM	–
O=C(C=C(O)C(F)(F)C(F)(F)F)c1ccccn1 [compound [15], 4,4,5,5,5-pentafluoro-3-hydroxy-1-(2-pyridyl)pent-2-en-1-one]	150 ± 10 nM	–	580 ± 90 nM	–
O=C(C=C(O)C(F)(F)C(F)(F)F)c1cccnc1 [compound [16], 4,4,5,5,5-pentafluoro-3-hydroxy-1-(3-pyridyl)pent-2-en-1-one]	110 ± 10 nM	–	630 ± 50 nM	IC50 (FNT of P. vivax (PvFNT)): 229 ± 10 nM; IC50 [1]: 874 ± 60 nM; IC50 (FNT of P. ovale (PoFNT)): 213 ± 30 nM; IC50 [2]: 214 ± 20 nM
O=C(C=C(O)C(F)(F)C(F)(F)F)c1cnc2ccccc2c1 [compound [17], 4,4,5,5,5-pentafluoro-3-hydroxy-1-(3-quinolyl)pent-2-en-1-one]	240 ± 40 nM	–	–	IC50 (PfFNT G107S; read-out: PfFNT G107S IC50, G107S mutant FNT, 1 mM lactate, pH 6.8, 30 s uptake): 96000 ± 800 nM
Cc1ccc(C(=O)C=C(O)C(F)(F)C(F)(F)F)cn1 [compound [18], 4,4,5,5,5-pentafluoro-3-hydroxy-1-(6-methyl-3-pyridyl)pent-2-en-1-one]	150 ± 10 nM	–	1700 ± 300 nM	–
O=C(C=C(O)C(F)(F)C(F)(F)F)c1ccc(Cl)cn1 [compound [19], 1-(5-chloropyridin-2-yl)-4,4,5,5,5-pentafluoro-3-hydroxypent-2-en-1-one]	230 ± 70 nM	–	510 ± 90 nM	–
COc1ccc(C(=O)C=C(O)C(F)(F)C(F)(F)F)cn1 [compound [20], 4,4,5,5,5-pentafluoro-3-hydroxy-1-(6-methoxy-3-pyridyl)pent-2-en-1-one]	110 ± 10 nM	–	260 ± 50 nM	–
O=C(C=C(O)C(F)(F)CO)c1cccnc1 [compound [21], 4,4-difluoro-3,5-dihydroxy-1-(3-pyridyl)pent-2-en-1-one]	5500 nM	–	–	–
CCCCC(F)(F)C(O)=CC(=O)c1cccnc1 [compound [22], 4,4-difluoro-3-hydroxy-1-(3-pyridyl)oct-2-en-1-one]	360 ± 50 nM	24000 ± 6000 nM	–	–

From patent EP3936128A1, “ACTIVE SUBSTANCE AGAINST PROTOZOA” (Christian-Albrechts-Universität zu Kiel, priority 2020, dated 2022)
